Source: patent publication US5635379A, “D-2-alkyl-tryptophan and peptides containing same” (Deghenghi; Romano, priority 1990, dated 1997)
Square brackets hold non-standard residues; d marks the D form. Peptide text beside a SMILES is read from it. dTrp(2-Me) = Cc1[nH]c2ccccc2c1C[C@@H](N)C(=O)O

Columns and labels:
[1] = Acute cardiovascular toxicity in the rat, single i.v. dose, mortality; type: in vivo; details: for Dead rats/Total N° of rats per group: observed up to 4 hours
Protocol: These two peptides were also tested for acute cardiovascular toxicity in the rat.
Dosages were calculated on the basis of the declared peptide content in each product, as specified below:
A single dose of HEXARELIN or GHRP-6 was administered to rats in different calendar dates in such a way that each group/dose should be treated in two subsequent days.
For each compound, appropriate amounts of solutions in 0.9% NaCl for injection were prepared just before treatment at the suitable concentrations. The solutions were sterilized by filtration (Millipore filter, pore size 0.22 μm). Owing to the type of the study (acute study) in which formulates were administered just after preparation, stability checks were not performed. Concentration checks were also not performed. The volume of solution injected was maintained constant at 1 ml/Kg.
The intravenous injections were done as a single dose in one vein of the tail with an appropriately gauged sterile, disposable, plastic syringe. The injection rate was about 0.1 ml/sec.
Periodical observations were made up to 4 hours after treatment. Abnormality and mortality were recorded. Body weight was recorded once during pre-trial and on the administration day to calculate the volumes to be injected.

GH release [2] = assay: GH-releasing activity i.v. in male rats anesthetized with ketamine and xilazine; type: in vivo, Sprague Dawley rats
Protocol: (§1) Male Sprague Dawley rats (Charles River, Calco, Italy) of 2-3 months of age were used. Rats were housed at 22 +2° C., with lighting cycle of 14 h light: 10 h dark (lights on from 06.00 to 20.00 h), at least 10 days before starting the experiments. A standard dry diet and water were available ad libitum.
(§2) Between 09.00-10.00 h rats were anesthetized with ketamine (58 mg/kg, Inoketam, VIRBAC, Milano) and xilazine (12 mg/kg, Rompun, Bayer, Milano). Thirty minutes later, a blood sample ([…]) was withdrawn from the exposed jugular vein, peptides were injected intravenously or subcutaneously, and further blood samples were collected 10, 20 and 30 minutes later.
(§3) Medium and plasma GH was measured by radioimmunoassay using materials supplied by the NIADDK Bethesda, Md. Values were expressed in term of NIASSK-rat-GH-RP-2 standard (potency 2 IU/ml), as ng/ml of medium or plasma.
(§4) The minimum detectable value of rat was 1.0 ng/ml; intra-assay variability was 6%. To avoid inter-assay variation, samples from each experiment were assayed simultaneously.

[3] = test system: pituitary cell monolayers; assay: GH-releasing activity in pituitary cell culture (monolayers); type: cell-based, Sprague Dawley rats; details: for GH in medium: 2 hours incubation
Protocol: as §1
Pituitary tissue used for cell dissociation included only the anterior lobe. Briefly, pituitary glands were collected in sterile F-10 medium and after cutting into small fragments incubated twice (30 minutes each) at 37° C. in F-10 medium containing 6% fetal calf serum and collagenase (2.5 mg/ml) (Boehringer, Mannheim GmbH, Germany). Fragments were then washed in Dulbecco's PBS, Ca^2+ and Mg^2+ free medium and mechanically dissociated. Single cell suspension was planted onto 24-well (2×10^5 cells/well) culture plates. The cells were incubated in F-10 medium supplemented with 10% horse serum, 4% fetal calf serum and gentamycin (25 μg/ml), in a humidified atmosphere of 5% CO2 and 95% air at 37° C.
After 3 days, the medium was removed and the cells washed twice with serum free F-10, then incubated with 1 ml of F-10 containing 0.1% BSA only, or with added various concentrations of synthetic peptides.
After incubation for 2 h at 37° C., media were collected and stored frozen at -20° C. until assayed for measurement of GH content.
as §3, §4

GH release [4] = assay: GH-releasing activity s.c. in male rats anesthetized with ketamine and xilazine; type: in vivo, Sprague Dawley rats
Protocol: as §1, §2, §3, §4

Growth Hormone release = assay: GH release in 10-day old rats after subcutaneous injection; type: in vivo; details: s.c. 160 μg/kg
Protocol: The peptides of Examples 4 and 5 were tested as Growth Hormone releasers in rats. GH released in a series of seven 10-day old rats, injected subcutaneously with a standard dose of 160 μg/kg and sacrificed 15 minutes after the injection.

growth hormone secretion = assay: Growth hormone secretion in young healthy male volunteers; type: in vivo, human; details: young (20-30 years old) healthy male volunteers, various dosages
Protocol: The effects of HEXARELIN on growth hormone secretion in young (20-30 years old) healthy male volunteers were measured after the administration of various dosages.

[5] = Hydrophobicity comparison (FIG. 12); type: physicochemical
GH release [6] = assay: GH response in conscious, freely-moving rats after antiserum pretreatment and i.v. peptide; type: in vivo
Protocol: Sixty male rats were prepared with indwelling venous catheters under ether anesthesia three days before experimentation. On the day of experimentation, all animals were given an iv heparin injection (100 IU; 0630 h). At 0700 h, animals were treated with 0.5 ml of either normal serum (control-as), somatostatin antiserum (somatostatin-as; 0.25 ml+0.25 ml saline), growth hormone-releasing hormone antiserum (GHRH-as; 0.25 ml+0.25 ml saline), or both somatostatin antiserum and growth hormone-releasing hormone antiserum (0.25 ml somatostatin-as+0.25 ml GHRH-as). Blood sampling began […] after antiserum pretreatment, with blood samples collected every 20 minutes for three hours. After the 180 minute sample (1100 h), animals were treated iv with 25 μg/kg of either Hexarelin or GHRP-6. Blood samples were then collected at 5, 10, 15, 20 30, 40, and 60 minutes after peptide treatment. All samples were centrifuged immediately and the plasma frozen until assayed. The peak GH response to Hexarelin and GHRP-6 as well as the area under the response curves (AUCs) for the thirty minutes following peptide injection were calculated. Data were subjected to repeated measures analysis of variance and are expressed as mean ±SEM.

[7] = i.v. 25 μg/kg peptide, pooled over antiserum pretreatments

## Cc1[nH]c2ccccc2c1C[C@@H](NC(=O)[C@@H](N)Cc1cnc[nH]1)C(=O)N[C@@H](C)C(=O)N[C@@H](Cc1c[nH]c2ccccc12)C(=O)N[C@H](Cc1ccccc1)C(=O)N[C@@H](CCCCN)C(N)=O [Example 4, His-D-2-methyl-Trp-Ala-Trp-D-Phe-Lys-NH2] (H-H[dTrp(2-Me)]AW[dF]K-NH2)
[1]; single i.v. dose 5.0 mg/kg
  Dead rats/Total N° of rats per group: 0/6
[1]; single i.v. dose 7.5 mg/kg
  Dead rats/Total N° of rats per group: 1/6
[1]; single i.v. dose 10 mg/kg
  Dead rats/Total N° of rats per group: 2/6
[1]; single i.v. dose, mortality
  toxicity compared with GHRP-6: less toxic than GHRP-6
GH release [2]; i.v. 150 μg/kg, 10 min
  plasma GH: 412.7 ± 39.7 ng/mL
GH release [2]; i.v. 150 μg/kg, 20 min
  plasma GH: 132.2 ± 12.7 ng/mL
GH release [2]; i.v. 150 μg/kg, 30 min
  plasma GH: 44.0 ± 6.0 ng/mL
GH release [2]; i.v. 150 μg/kg, time 0 min (before injection)
  plasma GH: 15.0 ± 2.9 ng/mL
GH release [2]; i.v. 300 μg/kg, 10 min
  plasma GH: 438.5 ± 26.8 ng/mL
GH release [2]; i.v. 300 μg/kg, 20 min
  plasma GH: 213.8 ± 34.2 ng/mL
GH release [2]; i.v. 300 μg/kg, 30 min
  plasma GH: 48.1 ± 8.8 ng/mL
GH release [2]; i.v. 300 μg/kg, time 0 min (before injection)
  plasma GH: 13.5 ± 2.0 ng/mL
GH release [2]; i.v. 600 μg/kg, 10 min
  plasma GH: 478.3 ± 19.8 ng/mL
GH release [2]; i.v. 600 μg/kg, 20 min
  plasma GH: 164.2 ± 13.2 ng/mL
GH release [2]; i.v. 600 μg/kg, 30 min
  plasma GH: 54.5 ± 13.3 ng/mL
GH release [2]; i.v. 600 μg/kg, time 0 min (before injection)
  plasma GH: 18.4 ± 4.3 ng/mL
GH release [2]; i.v. 150, 300 and 600 μg/kg, 10 and 20 minutes after administration
  effect on plasma GH concentrations: significant increases
[3]; 10^-6 M
  GH in medium: 558.0 ± 19.1 ng/well
[3]; 10^-7 M
  GH in medium: 589.1 ± 17.9 ng/well
[3]; 10^-8 M
  GH in medium: 557.8 ± 15.9 ng/well
[3]; 10^-8 to 10^-6 M, two hours
  GH secretion versus basal: stimulation of GH secretion over basal secretion
GH release [4]; s.c. 150 μg/kg, 10 min
  plasma GH: 107.1 ± 17.7 ng/mL
GH release [4]; s.c. 150 μg/kg, 20 min
  plasma GH: 156.6 ± 18.7 ng/mL
GH release [4]; s.c. 150 μg/kg, 30 min
  plasma GH: 86.0 ± 18.9 ng/mL
GH release [4]; s.c. 150 μg/kg, time 0 min (before injection)
  plasma GH: 12.0 ± 4.0 ng/mL
GH release [4]; s.c. 300 μg/kg, 10 min
  plasma GH: 80.6 ± 11.0 ng/mL
GH release [4]; s.c. 300 μg/kg, 20 min
  plasma GH: 171.7 ± 22.0 ng/mL
GH release [4]; s.c. 300 μg/kg, 30 min
  plasma GH: 102.7 ± 17.0 ng/mL
GH release [4]; s.c. 300 μg/kg, time 0 min (before injection)
  plasma GH: 12.0 ± 4.0 ng/mL
GH release [4]; s.c. 600 μg/kg, 10 min
  plasma GH: 90.7 ± 16.6 ng/mL
GH release [4]; s.c. 600 μg/kg, 20 min
  plasma GH: 187.5 ± 15.4 ng/mL
GH release [4]; s.c. 600 μg/kg, 30 min
  plasma GH: 115.3 ± 19.1 ng/mL
GH release [4]; s.c. 600 μg/kg, time 0 min (before injection)
  plasma GH: 23.0 ± 6.0 ng/mL
GH release [4]; s.c. 150, 300 and 600 μg/kg, 10, 20 and 30 minutes
  effect on plasma GH, comparison with GHRP-6: more effective than GHRP-6 at all the considered times
Growth Hormone release
  activity as Growth Hormone releaser: very active
Growth Hormone release; sacrificed 15 minutes after injection
  GH: 201 ng/mL
Growth hormone secretion
  effect on growth hormone secretion: effective in vivo
[5]
  hydrophobicity compared with GHRP-6: greater hydrophobicity than GHRP-6
GH release [6]; [7]
  Mean GH: 235 ± 21 ng/mL
  Peak GH: 552 ± 59 ng/mL
GH release [6]; i.v. 25 μg/kg peptide, thirty minutes following injection, pooled over antiserum pretreatments
  GH AUC: 7366 ± 912 ng/ml/30 min
GH release [6]; i.v. 25 μg/kg, pooled results
  overall GH response compared with GHRP-6: more effective in eliciting a higher mean GH response as compared to GHRP-6
